Patent US12233088B2 (Alexion Pharmaceuticals, Inc., priority 2017, dated 2025)
Like-named read-outs stand apart in the source and are kept apart here.

Columns and labels:
patients with WD = system: patients with WD
Text: Example 1 was an open-label multicenter single-arm phase 2 trial conducted in 28 adults with a diagnosis of WD established by a Leipzig score of ≥4.
Data were collected from the first 72 weeks of the extension period for the following parameters: (a) NCC levels, corrected for bound copper contained in tetrathiomolybdate-copper-albumin complexes (NCCcorrected); (b) Liver status, measured using standard laboratory measures and also by Model for End-Stage Liver Disease (MELD) score (based on bilirubin, creatinine and international normalized ratio [INR]); (c) Patient-reported disability using Unified Wilson Disease Rating Scale (UWDRS) part II, and neurological status using UWDRS part III; and (d) Safety is shown below.

[1] = system: Wilson disease patients with and without cirrhosis
Protocol: Mortality in Wilson disease is usually secondary to decompensated hepatic cirrhosis and liver failure; therefore, liver function is an important factor in determining appropriate treatment regimens. The outcome of patients with and without cirrhosis using in the patient pool of Example 1, supplemented with week 48 data generated in the 3-year extension phase of the initial trial, was analyzed.
For the analyses described in this example, patients were characterized as having cirrhosis based on medical history (biopsy or imaging) or based on estimates of AST to Platelet Ratio Index (APRI) (AST refers to aspartate aminotransferase). Summary statistics were calculated for Baseline demographics, NCCcorr levels, ALT levels, MELD and modified Nazer scores, Albumin concentration, International normalized ratio (INR), Disability and neurological status using the unified Wilson's disease rating scale, and adverse events (AEs). […] Patient flow for the extension study is depicted in FIG. 12.

[2] = core study, patients without cirrhosis
[3] = extension phase, with cirrhosis

## C[N+](C)(C)CCO.C[N+](C)(C)CCO.[SH-].[SH-].[S]=[Mo]=[S] [WTX101, bis-choline tetrathiomolybdate]
Patients with WD; SAE after week 24
  Relationship to the study drug as deemed by the investigator: Acute lower back pain (week 37): Unrelated
  Relationship to the study drug as deemed by the investigator: Dizziness (week 113): Possible
  Relationship to the study drug as deemed by the investigator: Loss of consciousness (week 113): Possible
  Relationship to the study drug as deemed by the investigator: Mania (week 38): Unlikely
  Relationship to the study drug as deemed by the investigator: Neutropenia (week 36): Possible
Patients with WD; SAE after week 24, likely due to disease progression
  Relationship to the study drug as deemed by the investigator: Exacerbation of WD (week 46): Possible
Patients with WD; after week 24
  SAE Acute lower back pain (week 37), number of patients: 1
  SAE Dizziness (week 113), number of patients: 1
  SAE Exacerbation of WD (week 46), number of patients: 1
  SAE Loss of consciousness (week 113), number of patients: 1
  SAE Mania (week 38), number of patients: 1
  number of patients with ≥1 SAEs: 5 patients
  number of serious adverse events: 6 events in
Patients with WD; after week 24, grade 1, normalized with dose reduction
  SAE Neutropenia (week 36), number of patients: 1
Patients with WD; beginning of extension period (week 24), N=22
  INR, mean ± standard error: 1.06 ± 0.0
Patients with WD; beginning of extension period (week 24), N=22, baseline 3.6 ± 0.4
  NCCcorrected, mean ± standard error: 0.9 ± 0.2 µM
Patients with WD; beginning of extension period (week 24), N=22, baseline 6.6 ± 1.9
  UWDRS part II score, mean ± standard error: 4.1 ± 1.8
Patients with WD; beginning of extension period (week 24), N=22, baseline 7.7 ± 0.4
  MELD score, mean ± standard error: 7.2 ± 0.4
Patients with WD; beginning of extension period (week 24), N=22, baseline 22.8 ± 4.0
  UWDRS part III score, mean ± standard error: 16.6 ± 3.9
Patients with WD; beginning of extension period (week 24), N=22, baseline 39.2 ± 1.0
  Albumin, mean ± standard error: 40.9 ± 0.7 g/L
Patients with WD; beginning of extension period (week 24), N=22, baseline 42.6 ± 6.2
  ALT, mean ± standard error: 36.8 ± 3.9 U/L
Patients with WD; between week 24 and 72
  AEs considered unrelated or unlikely related to therapy: 89%
  AEs mild or moderate: 89%
Patients with WD; between week 24 and week 72
  mean INR, albumin, ALT levels and MELD score (liver function): improved or unchanged
Patients with WD; extension period
  reversible ALT elevations requiring dose adjustments: not observed
Patients with WD; over the follow-up period
  hemoglobin measurements below the normal range: 5.2%
Patients with WD; over the follow-up period, none below 100 g/L
  patients with low hemoglobin at some point: 7 patients
Patients with WD; week 24 to 72
  mean UWDRS disability score and neurological signs score: continued improvements
Patients with WD; week 36 and 72, responded to dose reduction
  subjects with neutropenia accompanied by mild anemia and low NCC levels: Two
Patients with WD; weeks 1-24 to weeks 25-72
  decrease in number of reported AEs and SAEs: around 50%
[1]; core study, patients with cirrhosis
  patients with ALT elevations requiring dose adjustments: five
[1]; [2]
  patients with ALT elevations requiring dose adjustments: seven
  patients with study withdrawal associated with ALT elevations: three
[1]; core study, with cirrhosis
  patients with adverse events (AEs): 10
  patients with increased ALT and GGT levels (each): three
  patients with increased AST levels: four
[1]; core study, without cirrhosis
  patients with adverse events (AEs): 12
  patients with increased ALT and GGT levels (each): five
  patients with increased AST levels: four
  patients with tremor (AE): four
[1]; extension phase, cirrhosis group, neutropenia, hepatolenticular degeneration
  patients with SAEs possibly related to WTX101: two
[1]; [3]
  patients who experienced AEs: nine
  patients with urinary tract infection: four
[1]; extension phase, without cirrhosis
  patients who experienced AEs: six
[1]; up to 48 weeks, patients with and without cirrhosis
  liver function: stable
[1]; week 24 to week 48, regardless of cirrhosis status
  ALT elevations requiring dose adjustments: no ALT elevations requiring dose adjustments occurred
[1]; weeks 0-48, with cirrhosis
  patients with severe adverse events (SAEs): four
[1]; weeks 0-48, without cirrhosis
  patients with severe adverse events (SAEs): six
